Test results reported in patent publication US10865397B2, “Recombinant polynucleotide sequence for producing astaxanthin and uses thereof” (ACADEMIA SINICA, priority 2014, dated 2020).

Tests used:
[1] = 3′S, 3′S compared with the 3′R3′R, 3′R stereoisomer; cited from earlier work
Cz30 strain [2] = tested on: Cz30 strain
Description: (§3) After 24 hours, the cells were inoculated into the YPG plate with a series dilution and cultivated for another 48 hours.

Cz30 strain [3] = test: Stress tolerance test: pretreated cells, series dilution on YPG plate
Description: (§1) For the biorefinery application, plant biomass is one of the most abundant renewable resources on earth and is considered an essential building block for developing a sustainable society. Renewable biological resources from plant can be converted into bioproducts, such as biofuels, biochemicals, biolubricants, and biodegradable materials. To utilize the sugars contained in plant biomass, many available treatment techniques, including acid hydrolysis, steam explosion, ammonia fiber expansion, organosolv, sulfite pretreatment, alkaline wet oxidation, ozone pretreatment, and enzyme treatment, are employed for lignocellulose destruction. Toxins produced during acid and steam pretreatment of lignocellulose cover a large range of substances, such as furfural and hydroxymethylfurfural from hemicellulose and cellulose, alcohols and aldehydes from lignin, and heavy metals from bioreactor. Accordingly, the second stress factor examined was furfural treatment.
(§2) WT and Cz30 strains were further tested for ethanol and butanol treatments.

WT strain [4] = settings: 2, 4, or 6% ethanol in YPG medium, 24 hours
Description: as §3

WT strain [5] = test: Stress tolerance test: pretreated cells, series dilution on YPG plate; settings: colonies on plate (FIG. 27B)
Description: as §1, §2

CC1=C(/C=C/C(C)=C/C=C/C(C)=C/C=C/C=C(C)/C=C/C=C(C)/C=C/C2=C(C)C(=O)[C@@H](O)CC2(C)C)C(C)(C)C[C@H](O)C1=O (single isomer, unassigned; stereoisomer 3) [3′S, 3′S stereoisomer, 3′S, 3′S-astaxanthin]
antioxidant activity of astaxanthin stereoisomers [1]: higher antioxidant activity

CC1=C(/C=C/C(C)=C/C=C/C(C)=C/C=C/C=C(C)/C=C/C=C(C)/C=C/C2=C(C)C(=O)[C@@H](O)CC2(C)C)C(C)(C)C[C@@H](O)C1=O [3′R3′R, 3′S mesoform, 3′R3′R, 3′S astaxanthin]
antioxidant activity of astaxanthin stereoisomers [1]: no antioxidant activity

CC(=O)O[C@@]12CO[C@@H]1C[C@H](O)[C@@]1(C)C(=O)[C@H](O)C3=C(C)[C@@H](O)C[C@@](O)([C@@H](OC(=O)c4ccccc4)[C@H]21)C3(C)C [10-deacetyl baccatin III]
damage to cultured yeasts compared with ethanol alone (Cz30 strain [2]; 0.8 mM with 4% ethanol or 1.2 mM with 6% ethanol versus 4% or 6% ethanol, WT and Cz30 (FIG. 29B)): higher degree of damage
growth in medium containing 10-deacetyl baccatin III (Cz30 strain [2]; 0.4-1.2 mM in YPG medium, Cz30 versus WT): Cz30 grew better than WT
colony growth on YPG plate after pretreatment (Cz30 strain [3]; 3.2 mM 10-deacetyl baccatin III in 12% ethanol, 24 hours, then 48 hours on plate, Cz30 versus WT): Cz30 colonies grew better than WT

CCO [ethanol]
cell growth in presence of ethanol (Cz30 strain [2]; 2, 4, or 6% ethanol in YPG medium, 24 hours): weakly affected
colony growth on YPG plate after treatment (Cz30 strain [3]): Only some Cz30 colonies could grow
cell growth in presence of ethanol (WT strain [4]): significantly repressed

O=Cc1ccco1 [furfural]
furfural treatment tolerated (WT strain [5]): 80 mM
furfural treatment tolerated (Cz30 strain [3]; Cz30 strain, colonies on plate (FIG. 27B)): 100 mM

CC(C)CO [isobutanol]
colony growth on YPG plate after treatment (Cz30 strain [3]): Only some Cz30 colonies could grow
